Laboratory results taken from EP4595966A1, “USE OF NPY/Y5R INHIBITOR IN TREATING LIVER METASTASIS” (Friedrich-Alexander-Universität Erlangen-Nürnberg, priority 2024, dated 2025).

Assays:
[1] = test system: CRC, PC and BC cell lines; experiment: Clonogenicity assays, CRC, PC and BC cell lines; assay type: cell-based
Description: (§1) Normal human epidermal melanocytes (NHEM), the human primary melanoma cell lines Mel Juso, Mel Ei, Mel Wei and metastatic human melanoma cell lines SkMel28 (ATCC CRL-1469™), Mel Im, Mel Ju, SkMel3 (ATCC HTB-69™) were described previously (Jacob et al., 1998; Heimerl et al., 2007). Primary human hepatocytes (PHH) were isolated and cultured as described elsewhere (Dietrich et al., 2017; Lee et al., 2013). In addition, the human breast cancer cell line MCF-7 (ATCC HTB-22™), the human pancreatic cancer cell line Panc-1 (ATCC CRL-1469™) and the human colon cancer cell lines HT29 (ATCC HTB-38™), Caco-2 (ATCC HTB-37™) and LoVo (ATCC CCL-229™) were used. The murine melanoma cell line B16 (ATCC CRL-6475™) was used for in vitro and in vivo studies. Furthermore, the murine pancreatic cancer cell line KPC and the murine colon cancer cell lines MC38 and CT26 (ATCC CRL-2638™) were used. Table 4. Summary and additional information of human and murine cell lines. BC: Breast cancer. CRC: Colorectal cancer. Hetero: Heterozygous genotype. Homo: Homozygous genotype. MET: Metastatic melanoma cell line. MM: Malignant melanoma. Nd: not determined / missing. PC: Pancreatic cancer. PT: Primary tumor melanoma cell line. Peri-tumor: Tumor-surrounding liver tissue. IR: immunoreactivity (score).
As described previously (Dietrich et al., 2017), clonogenic assays were performed to analyze stem cell behavior, attachment dependent colony formation and growth of cancer cells.
Anchorage independent colony formation and growth of cancer cells were analyzed using soft agar colony formation assays as described previously (Borowicz et al., 2014). Treatment with specific agonists and antagonists started 24 h after tumor cell seeding. Treatment was repeated after five and nine days. Microscopic analysis of the obtained colonies was conducted 14 days after tumor cell seeding.

[2] = test system: human melanoma cells (SkMel28); experiment: Boyden chamber chemotactic migration, human melanoma cells; assay type: cell-based; conditions: for NPY-induced chemotactic migration: melanoma cells, migration towards recombinant NPY, co-treatment with the substance
Description: (§2) • Figure 1 A-B. Boyden chamber analysis and representative images (10-fold original magnification) of chemotaxis of human melanoma cells (SkMel28) towards recombinant NPY (lower chamber) with or without application of Y5R specific inhibitor CGP71683 (Y5Ri) (upper chamber) compared to migration towards serum free medium (n = 9). Arrowheads indicate migrated cells. • Figure 2. Representative images of colony number and colony size of human melanoma cells (SkMel28) in clonogenicity assays with application of increasing concentrations of Y5R inhibitor (Y5Ri) (n = 3). • Figure 3. Schematic illustration of the experimental procedure: splenic injection of murine melanoma cells (B16) in C57BL/6 mice on day 0; intraperitoneal injection of Y5R inhibitor CGP71683 (Y5Ri) (15 mg/kg body weight per injection) or solvent only (DMSO) as control on indicated days; end of experiment eight days after cell implantation. • Figure 4. Explanted metastases bearing spleens and livers of DMSO (control) and Y5Ri treated mice after splenic injection of B16 melanoma cells. • Figure 5. Macroscopic classification of livers from DMSO (n = 11) and Y5Ri treated mice (n = 9) into very low / low versus moderate / high liver metastasis. • Figure 6. A. CHK2 level in NPY^-/- mice compared to control WT mice measured by IHC analysis. B. CHK2 level in Y5Ri-treated mice compared to control DMSO-treated mice measured by IHC analysis. • Figure 7. […] A. Quantification of NPY mRNA expression levels in liver tissues from mice treated with control LNPs ("Control", LNPs bearing control siRNA pool, n = 11) and from mice treated with LNPs bearing siRNA pool targeting murine NPY ("LNP-siNPY", n = 11). B. Quantification of NPY protein levels in liver tissues from mice treated with control LNPs (n = 11) and LNP-siNPY treated mice (n = 11). • Figure 9 A-B. ELISA based protein expression analysis of absolute NPY levels in liver tissues and serum samples from LNP-siNPY treated mice (n = 10) compared to mice treated with control LNPs (LNPs bearing control siRNA pool, n = 11) after splenic melanoma cell injection. • Figure 10. […] A. Quantification of number of metastases in liver tissues from LNP-siNPY treated mice (n = 10) compared to mice treated with control LNPs (LNPs bearing control siRNA pool, n = 11). B. Quantification of metastases size in liver tissues from LNP-siNPY treated mice (n = 10) compared to mice treated with control LNPs (LNPs bearing control siRNA pool, n = 11). • Figure 13. […] A. Quantification of pERK protein expression in metastatic liver tissue samples of LNP-siNPY treated mice (n = 6) compared to mice treated with control LNPs (LNPs bearing control siRNA pool, n = 6). […]

[3] = test system: pCHK2; experiment: pCHK2 levels in melanoma cells in vitro; assay type: cell-based; conditions: (metastatic) melanoma cells in vitro
Procedure: As described in detail in previous studies (Dietrich et al., 2017), Western blots and densitometric quantification were performed using the following primary antibodies: anti-β-actin antibody (catalog no. A1978, Sigma-Aldrich; 1 in 5,000 dilution), anti-phospho-ERK antibody (catalog no. #9101, Cell Signaling, Frankfurt am Main, Germany; 1 in 4,000 dilution), anti-ERK antibody (catalog no. #9102, Cell Signaling; 1 in 1,000 dilution), anti-phospho-AKT antibody (catalog no. #9271, Cell Signaling, Frankfurt am Main, Germany; 1 in 2000 dilution), anti-AKT (catalog no. #9272, Cell Signaling, Frankfurt am Main, Germany; 1 in 2000 dilution), anti-Y5R antibody (catalog no. ab133757, Abcam; 1 in 30,000 dilution), anti-phospho-Chk2 antibody (catalog no. #2661, Cell Signaling, Frankfurt am Main, Germany; 1 in 1000 dilution), anti-phospho-p53 antibody (catalog no. #9284, Cell Signaling, Frankfurt am Main, Germany; 1 in 1000 dilution).

[4] = test system: metastatic CRC organoids; experiment: Ki67 expression in metastatic CRC organoids; assay type: cell-based, murine; conditions: vs controls
Procedure: Murine APTAK organoids were used for in vitro and in vivo experiments. These APTAK tumor organoids are deficient in Apc, Tp53, Tgfbr2 and express constitutively activated Kras and activated Akt1. Organoids were generated and CRC models were conducted in a similar way as previously described (Heichler et al., 2020). In an orthotopic mouse model for CRC and CRC (liver) metastasis, single cell suspensions from genetically engineered APTAK organoids were injected into the submucosa of wildtype mice.
Immunohistochemistry (IHC) and immunofluorescence analyses were performed using tissue microarrays consisting of human cancer tissue samples and mouse paraffin-embedded tissue sections as described previously (Dietrich et al., 2017; Dietrich et al., 2020). […] For each antibody, immunohistochemistry staining was evaluated semi-quantitatively and scores were calculated as described previously (Dietrich et al., 2017; Dietrich et al., 2020).

[5] = test system: human melanoma cells (SkMel28); experiment: Clonogenicity assays (two- and three-dimensional colony formation), human melanoma cells; assay type: cell-based; conditions: human (metastatic) melanoma cells
Description: as §2

[6] = test system: B16 melanoma cells (liver metastasis); experiment: Spleen-liver metastasis model with Y5R inhibitor treatment; assay type: in vivo, C57BL/6 mice
Description: • Figure 1 A-B. Boyden chamber analysis and representative images (10-fold original magnification) of chemotaxis of human melanoma cells (SkMel28) towards recombinant NPY (lower chamber) with or without application of Y5R specific inhibitor CGP71683 (Y5Ri) (upper chamber) compared to migration towards serum free medium (n = 9). Arrowheads indicate migrated cells. • Figure 2. Representative images of colony number and colony size of human melanoma cells (SkMel28) in clonogenicity assays with application of increasing concentrations of Y5R inhibitor (Y5Ri) (n = 3). • Figure 3. Schematic illustration of the experimental procedure: splenic injection of murine melanoma cells (B16) in C57BL/6 mice on day 0; intraperitoneal injection of Y5R inhibitor CGP71683 (Y5Ri) (15 mg/kg body weight per injection) or solvent only (DMSO) as control on indicated days; end of experiment eight days after cell implantation. • Figure 4. Explanted metastases bearing spleens and livers of DMSO (control) and Y5Ri treated mice after splenic injection of B16 melanoma cells. • Figure 5. Macroscopic classification of livers from DMSO (n = 11) and Y5Ri treated mice (n = 9) into very low / low versus moderate / high liver metastasis. • Figure 6. A. CHK2 level in NPY^-/- mice compared to control WT mice measured by IHC analysis. B. CHK2 level in Y5Ri-treated mice compared to control DMSO-treated mice measured by IHC analysis. • Figure 7. Schematic illustration of the experimental procedure: pre-treatment of C57BL/6 mice with lipid nanoparticles (LNP) bearing control siRNA pool or siNPY pool (pool of siRNAs targeting murine NPY) one day before surgery (day -1); splenic injection of murine melanoma cells (B16) on day 0; intraperitoneal injection of LNPs with control siRNA pool or siNPY pool as indicated; end of experiment six days after cell implantation. • Figure 8. A. Quantification of NPY mRNA expression levels in liver tissues from mice treated with control LNPs ("Control", LNPs bearing control siRNA pool, n = 11) and from mice treated with LNPs bearing siRNA pool targeting murine NPY ("LNP-siNPY", n = 11). B. Quantification of NPY protein levels in liver tissues from mice treated with control LNPs (n = 11) and LNP-siNPY treated mice (n = 11). • Figure 9 A-B. ELISA based protein expression analysis of absolute NPY levels in liver tissues and serum samples from LNP-siNPY treated mice (n = 10) compared to mice treated with control LNPs (LNPs bearing control siRNA pool, n = 11) after splenic melanoma cell injection. • Figure 10. […] A. Quantification of number of metastases in liver tissues from LNP-siNPY treated mice (n = 10) compared to mice treated with control LNPs (LNPs bearing control siRNA pool, n = 11). B. Quantification of metastases size in liver tissues from LNP-siNPY treated mice (n = 10) compared to mice treated with control LNPs (LNPs bearing control siRNA pool, n = 11). • Figure 13. […] A. Quantification of pERK protein expression in metastatic liver tissue samples of LNP-siNPY treated mice (n = 6) compared to mice treated with control LNPs (LNPs bearing control siRNA pool, n = 6). B. Quantification of pCHK2 protein expression in metastatic liver tissue samples of LNP-siNPY treated mice (n = 6) compared to samples from control treatment (control siPool bearing LNPs) (n = 6). • Figure 15. […]

[7] = test system: CRC, PC and BC cell lines; experiment: Boyden chamber NPY-mediated chemotactic migration, CRC, PC and BC cell lines; assay type: cell-based
Description: as §1
As described previously (Dietrich et al., 2017), Boyden chamber assays were used in order to analyze cell migration. Boyden chamber filters were additionally coated with Matrigel to analyze cell invasion.

| Structure (SMILES) | clonogenicity ([1]; CRC, PC and BC cell lines) | chemotactic migration induced by hepatocyte-derived, NPY-containing supernatants or by liver lysates from wildtype mice ([2]; concomitant Y5R-inhibition) | NPY-induced chemotactic migration [2] | pCHK2 levels [3] | Ki67 expression [4] | clonogenicity [5] | liver transaminases ([6]; mice, 15 mg/kg i.p. every 24 h) | cleaved caspase 3 expression in liver metastatic cells ([6]; mice, IHC) | liver metastasis ([6]; splenic injection of B16 cells, 15 mg/kg i.p. every 24 h, vs vehicle control) | pCHK2 in liver metastasis ([6]; treated mice vs controls, IHC (Figure 6B)) | Ki67 expression in liver metastasis ([6]; treated vs control-treated mice, IHC) | NPY-mediated chemotactic migration ([7]; CRC cells) | NPY-mediated chemotactic migration ([7]; PC and BC cell lines) | clonogenicity ([1]; CRC cells) | clonogenicity ([1]; PC and BC cell lines) |
| --- | --- | --- | --- | --- | --- | --- | --- | --- | --- | --- | --- | --- | --- | --- | --- |
| Nc1nc(NC[C@H]2CC[C@H](CNS(=O)(=O)c3cccc4ccccc34)CC2)nc2ccccc12 [Y5Ri, N-[[trans-4-[[(4-amino-2-quinazolinyl)amino]methyl]cyclohexyl]methyl]-1-naphthalenesulfonamide] | confirmed | significantly reduced | antagonized NPY-induced chemotactic migration | induced pCHK2 | significantly reduced Ki67 expression | strongly reduced clonogenicity | did not affect | only slightly, however not significantly, enhanced | significantly reduced liver metastasis | significant induction | significantly reduced |  |  |  |  |
| NC(=O)NCc1ccc(CNC(=O)[C@@H](CCCN=C(N)N)NC(=O)C(c2ccccc2)c2ccccc2)cc1 [Y1Ri] |  |  | not altered |  |  | not affected |  |  |  |  |  | did not affect | sufficient to reduce NPY-mediated chemotactic migration | did not affect | did not affect clonogenicity |
| N=C(N)NCCC[C@H](NC(=O)CC1(CC(=O)N2CCN(C3c4ccccc4NC(=O)c4ccccc43)CC2)CCCC1)C(=O)NCCn1c(=O)n(-c2ccccc2)n(-c2ccccc2)c1=O (stereo partly drawn) [Y2Ri] |  |  | not altered |  |  | not affected |  |  |  |  |  | did not affect | not affected | did not affect | did not affect clonogenicity |
| CC(=O)O[C@H]1[C@H]2O[C@]23[C@@H]2CC[C@@H]4C[C@@H](O)CC[C@]4(C)[C@H]2CC[C@]3(C)[C@H]1c1ccc(=O)oc1 [Cinobufagin] |  |  |  |  |  | strongly reduced clonogenicity |  |  |  |  |  |  |  |  |  |
